# Measurements published in patent US11234979B2, “Heteroaryl compounds as muscarinic M1 receptor positive allosteric modulators” (SUVEN LIFE SCIENCES LIMITED, priority 2017, dated 2022).
# Columns and labels:
# [1] = Rodent brain penetration study; format: in vivo, Male Wistar rats; details: male, Wistar, brain and plasma, po; rat, 3 mg/kg, p.o. @ 1.0 hr, brain-plasma ratio; read-out: Single dose Rat Brain Penetration (Cb/Cp)
# Description: Rodent Brain Penetration Study
# Male Wistar rats (260±40 grams) were used as experimental animals. Three animals were housed in each cage. Animals were given water and food ad libitum throughout the experiment and maintained on a 12 hours light/dark cycle.
# Brain penetration was determined in discrete manner in rats. One day prior to dosing day, male Wistar rats were acclimatized and randomly grouped according to their weight. At each time point (0.5, 1 and 2 hours) n=3 animals were used.
# The test compounds were suitably preformulated and administered orally at (free base equivalent) 3 mg/kg. Blood samples were removed via cardiac puncture by using isoflurane anesthesia. The animals were sacrificed to collect brain tissue. Plasma was separated and brain samples were homogenized and stored frozen at −20° C. until analysis. The concentrations of the test compounds in plasma and brain were determined using LC-MS/MS method.
# The test compounds were quantified in plasma and brain homogenate by qualified LC-MS/MS method using suitable extraction technique. The test compounds were quantified in the calibration range of 1-500 ng/mL in plasma and brain homogenate. Study samples were analyzed using calibration samples in the batch and quality control samples spread across the batch.
# Male Wistar rats = experiment: Object recognition task model; format: in vivo; details: rat, 3 mg/kg, p.o.
# Description: Object Recognition Task Model
# The cognition enhancing properties of compounds of this invention were estimated by using this model.
# Male Wistar rats (8-10 weeks old) were used as experimental animals. Four animals were housed in each cage. Animals were kept on 20% food deprivation from a day prior to experimentation. Water was provided ad libitum throughout the experiment. Animals were maintained on a 12 hours light/dark cycle in temperature and humidity controlled room. The experiment was carried out in a circular or square arena made up of acrylic. Rats were habituated to individual arenas for up to 1 hour in the absence of any objects on day 1.
# One group of 12 rats received vehicle and another set of animals received compound of the formula (I), before the familiar (T1) and choice (T2) trials. During the familiarization phase, (T1), the rats were placed individually in the arena for 3 minutes, in which two identical objects (a1 and a2) were positioned 10 cm from the wall. 24 hours after T1, trial for long-term memory test was performed. The same rats were placed in the same arena as they were placed in T1 trial. During the choice phase (T2) rats were allowed to explore the arena for 3 minutes in presence of a copy of familiar object (a3) and one novel object (b). During the T1 and T2 trial, explorations of each object (defined as sniffing, licking, chewing or having moving vibrissae whilst directing the nose towards the object at a distance of less than 1 cm) were recorded using stopwatch.
# T1 is the total time spent exploring the familiar objects (a1+a2).
# T2 is the total time spent exploring the familiar object and novel object (a3+b).
# The object recognition test was performed as described by Ennaceur, A., Delacour, J., 1988, A new one-trial test for neurobiological studies of memory in rats˜Behavioural data, Behav. Brain Res., 31, 47-59.
# [2] = molecular target: T1, recombinant human Muscarinic M1 receptor (Homo sapiens, UniProt P11229); experiment: Allosteric potency EC50 for Muscarinic M1 receptor, CHO pCRE-Luc reporter assay with EC20 of acetylcholine; format: cell-based; details: CHO cells, in presence of EC20 of acetylcholine, 4 hours
# T1 construct: expressed in transfected cells
# T1 sequence (P11229 1-460): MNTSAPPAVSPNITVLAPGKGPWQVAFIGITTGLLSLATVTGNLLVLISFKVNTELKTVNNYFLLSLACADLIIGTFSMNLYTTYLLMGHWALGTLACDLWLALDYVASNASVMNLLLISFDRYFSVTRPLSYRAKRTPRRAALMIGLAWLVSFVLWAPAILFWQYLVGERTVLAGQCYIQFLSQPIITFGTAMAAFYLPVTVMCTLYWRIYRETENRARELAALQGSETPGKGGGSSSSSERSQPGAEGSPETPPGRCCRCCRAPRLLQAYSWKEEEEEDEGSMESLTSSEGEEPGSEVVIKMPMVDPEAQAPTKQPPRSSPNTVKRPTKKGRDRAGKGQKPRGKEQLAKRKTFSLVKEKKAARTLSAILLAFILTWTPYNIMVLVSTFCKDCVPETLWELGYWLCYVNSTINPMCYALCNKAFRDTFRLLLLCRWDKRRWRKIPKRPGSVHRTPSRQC
# Procedure, shortened: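 Stable CHO line expressing human M1 receptor with CRE-driven luciferase, serum-starved overnight, then exposed to increasing compound concentrations plus an EC20 of acetylcholine in OptiMEM for 4 hours at 37° C. Luciferase read after lysis, normalized to maximal acetylcholine response; EC50 is concentration giving 50% stimulation.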
# [3] = choice trial T2, 24 hours after T1
compound,measurement,setting,value
"Cn1cc(-c2ccc(Cc3cc(C(=O)N[C@H]4CCCC[C@@H]4O)n4ncccc34)cc2)cn1 [Example 32, N-(cis-1S,2S-2-Hydroxycyclohexyl)-5-[4-(1-methyl-1H-pyrazol-4-yl)-benzyl]-pyrrolo [1,2-b]pyridazine-7-carboxamide]",Kp at 1 h,[1],0.15 ± 0.02
same,Inference,Male Wistar rats,Active
same,"Exploration time mean ± S.E.M, Familiar object",Male Wistar rats; [3],11.64 ± 2.16 s
same,"Exploration time mean ± S.E.M, Novel object",Male Wistar rats; [3],19.81 ± 2.96 s
same,EC50,[2],0.066 µM
